Results published in patent publication US6500853B1, “Inhibitors of phospholipase enzymes” (Genetics Institute, LLC, priority 1998, dated 2002).
Each block holds one compound with its values, some of them ahead of it.

Assays:
[1] = target: T1, cPLA2 (Homo sapiens, UniProt P47712); experiment: Coumarin Assay (cPLA2 inhibition); format: biochemical
T1 sequence (P47712 1-749): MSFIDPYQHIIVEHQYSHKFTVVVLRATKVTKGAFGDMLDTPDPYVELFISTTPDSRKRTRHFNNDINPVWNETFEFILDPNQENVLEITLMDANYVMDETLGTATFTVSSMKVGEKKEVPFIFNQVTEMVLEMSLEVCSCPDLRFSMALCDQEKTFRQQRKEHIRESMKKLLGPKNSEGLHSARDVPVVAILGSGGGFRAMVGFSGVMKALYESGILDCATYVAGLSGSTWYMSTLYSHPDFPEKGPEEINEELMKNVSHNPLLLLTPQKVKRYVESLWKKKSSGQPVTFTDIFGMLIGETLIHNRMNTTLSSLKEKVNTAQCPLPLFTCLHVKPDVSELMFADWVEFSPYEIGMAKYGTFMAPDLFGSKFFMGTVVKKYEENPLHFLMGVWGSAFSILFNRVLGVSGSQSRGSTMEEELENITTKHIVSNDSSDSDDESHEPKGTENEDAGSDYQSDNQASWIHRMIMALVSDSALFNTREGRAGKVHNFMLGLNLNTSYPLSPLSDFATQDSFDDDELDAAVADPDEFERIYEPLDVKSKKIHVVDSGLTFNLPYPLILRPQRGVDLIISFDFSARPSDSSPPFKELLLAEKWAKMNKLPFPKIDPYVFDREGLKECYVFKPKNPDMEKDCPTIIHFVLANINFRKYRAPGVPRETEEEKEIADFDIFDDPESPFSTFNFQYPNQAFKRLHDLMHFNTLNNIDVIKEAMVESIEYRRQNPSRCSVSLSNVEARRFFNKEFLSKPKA
Outline: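 Percent inhibition at the stated concentration, from the rate of 460 nm emission rise (360 nm excitation) per minute. Reaction started by adding 4 μg enzyme to compound and 60 μM 7-hydroxycoumarinyl 6-heptenoate in Hepes buffer pH 7.5 with 1 mM EDTA.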

[2] = tested on: Rat Carrageenan-Induced Footpad Edema; experiment: Rat Carrageenan-Induced Footpad Edema Test; format: in vivo, male Sprague Dawley rats; conditions: footpad volume 3 hours after carrageenan

- PERCENT INHIBITION @ ([1]; CONCENTRATION 1.65 micromolar): 50%
- PERCENT INHIBITION @ ([1]; CONCENTRATION 1.7 micromolar): 50%
- PERCENT INHIBITION @ ([1]; CONCENTRATION 1.75 micromolar): 50%
- PERCENT INHIBITION @ ([1]; CONCENTRATION 1.9 micromolar): 50%
- PERCENT INHIBITION @ ([1]; CONCENTRATION 2.1 micromolar): 50%
- PERCENT INHIBITION @ ([1]; CONCENTRATION 2.5 micromolar): 71%
- PERCENT INHIBITION @ ([1]; CONCENTRATION 6.25 micromolar): 97%
Compound: 4-({5-[(cyclopentylcarbonyl)amino]-1-[phenyl(2-pyridinyl)methyl]-1H-indol-3-yl}methyl)-3-methoxybenzoic acid [Example 44]
- PERCENT INHIBITION ([2]; IV, 5 mg/Kg): 11.9%

- PERCENT INHIBITION @ ([1]; CONCENTRATION 0.35 micromolar): 50%
- PERCENT INHIBITION @ ([1]; CONCENTRATION 0.38 micromolar): 50%
- PERCENT INHIBITION @ ([1]; CONCENTRATION 0.39 micromolar): 50%
- PERCENT INHIBITION @ ([1]; CONCENTRATION 0.4 micromolar): 50%
- PERCENT INHIBITION @ ([1]; CONCENTRATION 0.44 micromolar): 50%
- PERCENT INHIBITION @ ([1]; CONCENTRATION 0.45 micromolar): 50%
- PERCENT INHIBITION @ ([1]; CONCENTRATION 0.5 micromolar): 64%
- PERCENT INHIBITION @ ([1]; CONCENTRATION 1.25 micromolar): 86%
Compound: 4-[(1-benzhydryl-5-nitro-1H-indol-3-yl)methyl]3-methoxybenzoic acid [Example 12]
- PERCENT INHIBITION ([2]; PO, 2 mg/Kg): 0.19%
- PERCENT INHIBITION ([2]; PO, 10 mg/Kg): −0.38%

- PERCENT INHIBITION @ ([1]; CONCENTRATION 11 micromolar): 50%
- PERCENT INHIBITION @ ([1]; CONCENTRATION 12.5 micromolar): 50%
- PERCENT INHIBITION @ ([1]; CONCENTRATION 14.2 micromolar): 50%
Compound: 4-[(1-benzhydryl-5-{[(dimethylamino)sulfonyl]amino}-1H-indol-3-yl)methyl]-3- [Example 92]
- PERCENT INHIBITION ([2]; PO, 2 mg/Kg): 27.36%
- PERCENT INHIBITION ([2]; PO, 10 mg/Kg): 21.34%

Compound: CCCn1cc(Cc2ccc(C(=O)NS(=O)(=O)c3ccccc3C)cc2OC)c2cc(NC(=O)OC3CCCC3)ccc21 [Example 2, Cyclopentyl N-{3-[2-methoxy-4-({[(2-methylphenyl)sulfonyl]amino}carbonyl)benzyl]-1-propyl-1H-indol-5-yl}carbamate]
- inhibition in vivo at 5 mg/kg ([2]; Rattus norvegicus, iv, 3 h, IV, 5 mg/Kg, read-out: PERCENT INHIBITION): 15.9%

- inhibition at 5.5 µM ([1]; Conc 5.5 uM, read-out: % Inhibition): 50%
Compound: CS(=O)(=O)Cc1c(CCOc2ccc(C(=O)O)cc2)c2cc(Cl)ccc2n1C(c1ccccc1)c1ccccc1 [Example 154, 4-(2-{1-benzhydryl-5-chloro-2-[(methylsulfonyl)methyl]-1H-indol-3-yl}ethoxy)benzoic acid]

- inhibition at 2.2 µM ([1]; Conc 2.2 uM, read-out: % Inhibition): 50%
Compound: O=C(O)c1ccc(OCCc2c(COCc3ccccc3[N+](=O)[O-])n(C(c3ccccc3)c3ccccc3)c3ccc(Cl)cc23)cc1 [Example 155, 4-[2-(1-benzhydryl-5-chloro-2-{[(2-nitrobenzyl)oxy]methyl}-1H-indol-3-yl)ethoxy]benzoic acid]

- inhibition at 1 µM ([1]; Conc 1 uM, read-out: % Inhibition): 50%
Compound: O=C(O)c1ccc(OCCc2c(COCc3c(F)cccc3F)n(C(c3ccccc3)c3ccccc3)c3ccc(Cl)cc23)cc1 [Example 156, 4-[2-(1-benzhydryl-5-chloro-2-{[(2,6-difluorobenzyl)oxy]methyl}-1H-indol-3-yl)ethoxy]benzoic acid]

- inhibition at 3.8 µM ([1]; Conc 3.8 uM, read-out: % Inhibition): 50%
Compound: O=C(O)c1ccc(S(=O)(=O)CCc2c(CO)n(C(c3ccccc3)c3ccccc3)c3ccc(Cl)cc23)cc1 [Example 157, 4-({2-[1-benzhydryl-5-chloro-2-(hydroxymethyl)-1H-indol-3-yl]ethyl}sulfonyl)benzoic acid]

- inhibition at 1.7 µM ([1]; Conc 1.7 uM): 50%
Compound: O=C(O)c1ccc(OCCc2c(COCc3ccccn3)n(C(c3ccccc3)c3ccccc3)c3ccc(Cl)cc23)cc1 [Example 158, 4-(2-{1-benzhydryl-5-chloro-2-[(2-pyridinylmethoxy)methyl]-1H-indol-3-yl}ethoxy)benzoic acid]

- inhibition at 4.2 µM ([1]; Conc 4.2 uM, read-out: % Inhibition): 50%
Compound: O=C(O)c1ccc(OCCc2c(COCc3ccncc3)n(C(c3ccccc3)c3ccccc3)c3ccc(Cl)cc23)cc1 [Example 159, 4-(2-{1-benzhydryl-5-chloro-2-[(4-pyridinylmethoxy)methyl]-1H-indol-3-yl}ethoxy)benzoic acid]

- inhibition at 2 µM ([1]; Conc 2 uM, read-out: % Inhibition): 50%
Compound: O=C(O)c1ccc(OCCc2c(COCc3ccccc3)n(C(c3ccccc3)c3ccccc3)c3ccc(Cl)cc23)cc1 [Example 160, 4-(2-{1-benzhydryl-2-[(benzyloxy)methyl]-5-chloro-1H-indol-3-yl}ethoxy)benzoic acid]

- inhibition at 1.8 µM ([1]; Conc 1.8 uM, read-out: % Inhibition): 50%
Compound: O=C(O)c1ccc(OCCc2c(COCc3ccc(F)cc3)n(C(c3ccccc3)c3ccccc3)c3ccc(Cl)cc23)cc1 [Example 161, 4-[2-(1-benzhydryl-5-chloro-2-{[(4-fluorobenzyl)oxy]methyl}-1H-indol-3-yl)ethoxy]benzoic acid]

- inhibition at 1.5 µM ([1]; Conc 1.5 uM, read-out: % Inhibition): 50%
Compound: O=C(O)c1ccc(OCCc2c(COCc3ccc(F)cc3F)n(C(c3ccccc3)c3ccccc3)c3ccc(Cl)cc23)cc1 [Example 162, 4-[2-(1-benzhydryl-5-chloro-2{[(2,4-difluorobenzyl)oxy]methyl}-1H-indol-3-yl)ethoxy]benzoic acid]

Compound: N#Cc1ccc(COCc2c(CCOc3ccc(C(=O)O)cc3)c3cc(Cl)ccc3n2C(c2ccccc2)c2ccccc2)cc1 [Example 163, 4-[2-(1-benzhydryl-5-chloro-2{[(4-cynobenzyl)oxy]methyl}-1H-indol-3-yl)ethoxy]benzoic acid]
- % Inhibition ([1]; Conc 1.25 uM): 50%

- inhibition at 3.5 µM ([1]; Conc 3.5 uM, read-out: % Inhibition): 50%
Compound: O=C(O)c1ccc(OCCc2c(COC/C=C/c3ccccc3)n(C(c3ccccc3)c3ccccc3)c3ccc(Cl)cc23)cc1 [Example 164, 4-{2-[1-benzhydryl-5-chloro-2-({[(E)-3-phenyl-2-propenyl]oxy}methyl)-1H -indol-3-yl)ethoxy]benzoic acid]

- inhibition at 0.8 µM ([1]; Conc 0.8 uM, read-out: % Inhibition): 50%
Compound: O=C(O)CCc1ccc(OCCc2c(COCc3ccc(F)cc3)n(C(c3ccccc3)c3ccccc3)c3ccc(Cl)cc23)cc1 [Example 165, 3-{4-[2-(1-benzhydryl-5-chloro-2-{[(4-fluorobenzyl)oxy]methyl}-1H-indol-3-yl)ethoxy]phenyl}propanoic acid]

- inhibition at 1.3 µM ([1]; Conc 1.3 uM, read-out: % Inhibition): 50%
Compound: O=C(O)CCc1ccc(OCCc2c(CO)n(C(c3ccccc3)c3ccccc3)c3ccc(Cl)cc23)cc1 [Example 167, 3-(4-{2-[1-benzhydryl-5-chloro-2-(hydroxymethyl)-1H-indol-3-yl]ethoxy}phenyl)propanoic acid]

- inhibition at 2.4 µM ([1]; Conc 2.4 uM, read-out: % Inhibition): 50%
Compound: O=C(O)CCc1ccc(S(=O)(=O)CCc2c(CO)n(C(c3ccccc3)c3ccccc3)c3ccc(Cl)cc23)cc1 [Example 168, 3-[4-({2-[1-benzhydryl-5-chloro-2-(hydroxymethyl)-1H-indol-3-yl]ethyl}sulfonyl)phenyl]propanoic acid]

- inhibition at 0.45 µM ([1]; Conc 0.45 uM, read-out: % Inhibition): 50%
Compound: Cc1c(CCS(=O)(=O)c2ccc(CCC(=O)O)cc2)c2cc(Cl)ccc2n1C(c1ccccc1)c1ccccc1 [Example 169, 3-(4-{[2-(1-Benzhydryl-5-chloro-2-methyl-1H-indol-3-yl)ethyl]sulfonyl}phenyl)propanoic acid]

- inhibition at 0.5 µM ([1]; Conc 0.5 uM, read-out: % Inhibition): 50%
Compound: Cc1c(CCSc2ccc(CCC(=O)O)cc2)c2cc(Cl)ccc2n1C(c1ccccc1)c1ccccc1 [Example 170, 3-(4 {[2-(1-benzhydryl-5-chloro-2-methyl-1H-indol-3-yl)ethyl]sulfanyl}phenyl)propanoic acid]

- % Inhibition ([1]; Conc 0.4 uM): 50%
Compound: Cc1c(CCOc2ccc(CCC(=O)O)cc2)c2cc(Cl)ccc2n1C(c1ccccc1)c1ccccc1 [Example 171, 3-{4-[2-(1-Benzhydryl-5-chloro-2-methyl-1H-indol-3-yl)ethoxy]phenyl}propanoic acid (10)]
